Data published in patent US12493040B2, “Cancer detection method using sense of smell of nematode” (HIROTSU BIO SCIENCE INC., priority 2013, dated 2025).

Tested on: RNAi-treated eri-1 (mg366) nematodes
Test: RNAi screening of olfactory receptor genes: chemotaxis assay of RNAi-treated nematodes to odorants
Assay type: in vivo, Caenorhabditis elegans
Details: repellent or high concentration of attractant
Summary of the method: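 eri-1 (mg366) worms knocked down by feeding RNAi (Ahringer library) on IPTG/ampicillin NGM plates with E. coli for 4 days, then tested for chemotaxis, 30–50 worms per assay. Odorants at 1 μl of 10^−3 or 10^−4 dilution, or 1 and 5 μl undiluted. Hits scored by z score, thresholds ±1.96 (P<0.05) or ±0.96.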

## CCCCCCCC(C)=O [nonanone]
Control nematodes
  chemotaxis index: −0.91 ± 0.009
srh-4 RNAi-treated nematodes
  chemotaxis index: −0.87
srh-7 RNAi-treated nematodes
  chemotaxis index: −0.78
srh-8 RNAi-treated nematodes
  chemotaxis index: −0.86
srh-10 RNAi-treated nematodes
  chemotaxis index: −0.88
srh-11 RNAi-treated nematodes
  chemotaxis index: −0.65
srh-15 RNAi-treated nematodes
  chemotaxis index: −0.25
srh-16 RNAi-treated nematodes
  chemotaxis index: −0.63
srh-18 RNAi-treated nematodes
  chemotaxis index: −0.26
srh-19 RNAi-treated nematodes
  chemotaxis index: −0.80
srh-22 RNAi-treated nematodes
  chemotaxis index: −0.89
srh-23 RNAi-treated nematodes
  chemotaxis index: −0.77
srh-24 RNAi-treated nematodes
  chemotaxis index: −0.79
srh-25 RNAi-treated nematodes
  chemotaxis index: −0.06
srh-27 RNAi-treated nematodes
  chemotaxis index: −0.79
srh-28 RNAi-treated nematodes
  chemotaxis index: −0.71
srh-36 RNAi-treated nematodes
  chemotaxis index: −0.57
srh-37 RNAi-treated nematodes
  chemotaxis index: −0.89
srh-39 RNAi-treated nematodes
  chemotaxis index: −0.90
srh-40 RNAi-treated nematodes
  chemotaxis index: −0.83
srh-41 RNAi-treated nematodes
  chemotaxis index: −0.62
srh-44 RNAi-treated nematodes
  chemotaxis index: −0.58
srh-45 RNAi-treated nematodes
  chemotaxis index: −0.91
srh-46 RNAi-treated nematodes
  chemotaxis index: −0.87
srh-48 RNAi-treated nematodes
  chemotaxis index: −0.79
srh-49 RNAi-treated nematodes
  chemotaxis index: −0.91
srh-50 RNAi-treated nematodes
  chemotaxis index: −0.96
srh-51 RNAi-treated nematodes
  chemotaxis index: −0.90
srh-52 RNAi-treated nematodes
  chemotaxis index: −0.85
srh-55 RNAi-treated nematodes
  chemotaxis index: −0.96
srh-59 RNAi-treated nematodes
  chemotaxis index: −0.79
srh-60 RNAi-treated nematodes
  chemotaxis index: −0.83
srh-61 RNAi-treated nematodes
  chemotaxis index: −0.68
srh-67 RNAi-treated nematodes
  chemotaxis index: −0.61
srh-68 RNAi-treated nematodes
  chemotaxis index: −0.65
srh-69 RNAi-treated nematodes
  chemotaxis index: −0.84
srh-70 RNAi-treated nematodes
  chemotaxis index: −0.81
srh-71 RNAi-treated nematodes
  chemotaxis index: −0.80
srh-72 RNAi-treated nematodes
  chemotaxis index: −0.87
srh-74 RNAi-treated nematodes
  chemotaxis index: −0.96
srh-75 RNAi-treated nematodes
  chemotaxis index: −0.86
srh-77 RNAi-treated nematodes
  chemotaxis index: −0.74
srh-79 RNAi-treated nematodes
  chemotaxis index: −0.61
srh-80 RNAi-treated nematodes
  chemotaxis index: −0.81
srh-82 RNAi-treated nematodes
  chemotaxis index: −0.96
srh-83 RNAi-treated nematodes
  chemotaxis index: −0.70
srh-97 RNAi-treated nematodes
  chemotaxis index: −0.66
srh-99 RNAi-treated nematodes
  chemotaxis index: −0.82
srh-100 RNAi-treated nematodes
  chemotaxis index: −0.48
srh-104 RNAi-treated nematodes
  chemotaxis index: −0.71
srh-105 RNAi-treated nematodes
  chemotaxis index: −0.80
srh-109 RNAi-treated nematodes
  chemotaxis index: −0.84
srh-111 RNAi-treated nematodes
  chemotaxis index: −0.71
srh-113 RNAi-treated nematodes
  chemotaxis index: −0.91
srh-115 RNAi-treated nematodes
  chemotaxis index: −0.75
srh-116 RNAi-treated nematodes
  chemotaxis index: −0.69
srh-118 RNAi-treated nematodes
  chemotaxis index: −0.89
srh-119 RNAi-treated nematodes
  chemotaxis index: −0.84
srh-120 RNAi-treated nematodes
  chemotaxis index: −0.68
srh-122 RNAi-treated nematodes
  chemotaxis index: −0.84
srh-123 RNAi-treated nematodes
  chemotaxis index: −0.90
srh-125 RNAi-treated nematodes
  chemotaxis index: −0.77
srh-128 RNAi-treated nematodes
  chemotaxis index: −0.89
srh-129 RNAi-treated nematodes
  chemotaxis index: −0.90
srh-130 RNAi-treated nematodes
  chemotaxis index: −0.94
srh-131 RNAi-treated nematodes
  chemotaxis index: −0.45
srh-132 RNAi-treated nematodes
  chemotaxis index: −0.84
srh-139 RNAi-treated nematodes
  chemotaxis index: −0.91
srh-140 RNAi-treated nematodes
  chemotaxis index: −0.80
srh-141 RNAi-treated nematodes
  chemotaxis index: −0.94
srh-142 RNAi-treated nematodes
  chemotaxis index: −0.94
srh-145 RNAi-treated nematodes
  chemotaxis index: −0.44
srh-148 RNAi-treated nematodes
  chemotaxis index: −0.78
srh-154 RNAi-treated nematodes
  chemotaxis index: −0.58
srh-159 RNAi-treated nematodes
  chemotaxis index: −0.48
srh-165 RNAi-treated nematodes
  chemotaxis index: −0.40
srh-166 RNAi-treated nematodes
  chemotaxis index: −1.00
srh-167 RNAi-treated nematodes
  chemotaxis index: −1.00
srh-169 RNAi-treated nematodes
  chemotaxis index: −0.92
srh-174 RNAi-treated nematodes
  chemotaxis index: −0.92
srh-179 RNAi-treated nematodes
  chemotaxis index: −0.97
srh-182 RNAi-treated nematodes
  chemotaxis index: −0.98
srh-186 RNAi-treated nematodes
  chemotaxis index: −0.93
srh-190 RNAi-treated nematodes
  chemotaxis index: −1.00
srh-193 RNAi-treated nematodes
  chemotaxis index: −0.84
srh-195 RNAi-treated nematodes
  chemotaxis index: −0.98
srh-201 RNAi-treated nematodes
  chemotaxis index: −0.97
srh-203 RNAi-treated nematodes
  chemotaxis index: −1.00
srh-204 RNAi-treated nematodes
  chemotaxis index: −1.00
srh-206 RNAi-treated nematodes
  chemotaxis index: −1.00
srh-207 RNAi-treated nematodes
  chemotaxis index: −1.00
srh-208 RNAi-treated nematodes
  chemotaxis index: −0.82
srh-209 RNAi-treated nematodes
  chemotaxis index: −0.84
srh-210 RNAi-treated nematodes
  chemotaxis index: −0.66
srh-214 RNAi-treated nematodes
  chemotaxis index: −0.96
srh-216 RNAi-treated nematodes
  chemotaxis index: −0.83
srh-217 RNAi-treated nematodes
  chemotaxis index: −0.44
srh-220 RNAi-treated nematodes
  chemotaxis index: −0.28
srh-222 RNAi-treated nematodes
  chemotaxis index: −0.82
srh-223 RNAi-treated nematodes
  chemotaxis index: −0.74
